Laboratory results taken from ChEMBL document CHEMBL1144627, “N-(3-(4-Hydroxyphenyl)-propenoyl)-amino acid tryptamides as SIRT2 inhibitors” (Bioorg Med Chem Lett, 2007).

Assays:
[1] = biological target: T1, NAD-dependent protein deacetylase sirtuin-1 (Homo sapiens) (UniProt Q96EB6); experiment: Inhibition of SIRT1 at 200 uM
T1 sequence (whole entry): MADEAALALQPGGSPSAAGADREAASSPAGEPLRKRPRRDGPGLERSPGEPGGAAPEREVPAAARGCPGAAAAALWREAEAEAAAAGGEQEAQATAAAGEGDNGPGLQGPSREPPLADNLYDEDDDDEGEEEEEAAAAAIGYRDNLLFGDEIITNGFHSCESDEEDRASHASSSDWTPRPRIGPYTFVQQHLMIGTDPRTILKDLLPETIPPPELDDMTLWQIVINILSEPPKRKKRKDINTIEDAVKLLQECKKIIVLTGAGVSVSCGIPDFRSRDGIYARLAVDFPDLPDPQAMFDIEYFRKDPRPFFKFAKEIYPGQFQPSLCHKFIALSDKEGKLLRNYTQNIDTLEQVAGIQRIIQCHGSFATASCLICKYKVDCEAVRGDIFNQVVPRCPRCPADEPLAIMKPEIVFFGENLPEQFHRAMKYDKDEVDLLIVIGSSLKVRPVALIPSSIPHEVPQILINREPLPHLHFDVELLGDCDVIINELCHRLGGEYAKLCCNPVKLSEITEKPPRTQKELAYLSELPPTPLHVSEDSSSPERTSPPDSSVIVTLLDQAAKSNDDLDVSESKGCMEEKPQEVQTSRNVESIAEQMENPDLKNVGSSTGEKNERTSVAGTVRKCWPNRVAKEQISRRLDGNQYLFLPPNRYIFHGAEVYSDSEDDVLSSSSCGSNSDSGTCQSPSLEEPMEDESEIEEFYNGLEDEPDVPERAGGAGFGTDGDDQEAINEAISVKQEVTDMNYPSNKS

[2] = biological target: T2, NAD-dependent protein deacetylase sirtuin-1 (Homo sapiens, UniProt Q96EB6); experiment: Inhibition of SIRT1
T2 sequence (Q96EB6 whole entry): T1 sequence (whole entry)

[3] = biological target: T3, NAD-dependent protein deacetylase sirtuin-2 (Homo sapiens) (UniProt Q8IXJ6); experiment: Inhibition of SIRT2 at 200 uM
T3 sequence (whole entry): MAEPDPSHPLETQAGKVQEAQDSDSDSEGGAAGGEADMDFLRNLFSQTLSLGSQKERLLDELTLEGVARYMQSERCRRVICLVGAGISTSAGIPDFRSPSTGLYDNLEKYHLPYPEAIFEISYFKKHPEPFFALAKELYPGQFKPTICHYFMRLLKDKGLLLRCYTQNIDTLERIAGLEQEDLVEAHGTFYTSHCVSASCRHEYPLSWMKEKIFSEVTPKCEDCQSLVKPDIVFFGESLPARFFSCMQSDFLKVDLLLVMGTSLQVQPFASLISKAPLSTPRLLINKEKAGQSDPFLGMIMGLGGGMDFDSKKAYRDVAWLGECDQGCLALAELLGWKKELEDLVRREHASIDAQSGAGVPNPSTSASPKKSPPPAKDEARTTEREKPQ

[4] = biological target: T4, NAD-dependent protein deacetylase sirtuin-2 (Homo sapiens, UniProt Q8IXJ6); experiment: Inhibition of SIRT2
T4 sequence (Q8IXJ6 whole entry): T3 sequence (whole entry)

inhibition [1] [%]	IC50 [2] [µM]	inhibition [3] [%]	IC50 [4] [µM]	Compound
9.9		44.3		O=C(/C=C/c1ccc(O)cc1)NCC(=O)NCCc1c[nH]c2ccccc12
3.2		8.5		C[C@@H](NC(=O)/C=C/c1ccc(O)cc1)C(=O)NCCc1c[nH]c2ccccc12
17.7		88.6	47	C[C@H](NC(=O)/C=C/c1ccc(O)cc1)C(=O)NCCc1c[nH]c2ccccc12

Further lines, the molecule ahead of its results:

Compound	inhibition [1] [%]	IC50 [2] [µM]	inhibition [3] [%]	IC50 [4] [µM]
O=C(/C=C/c1ccc(OCc2ccc(F)cc2)cc1)NC1(C(=O)NCCc2c[nH]c3ccc(F)cc23)CCNCC1	94.1	73		
CC(C)(NC(=O)/C=C/c1ccc(OCc2ccccc2)cc1)C(=O)NCCc1c[nH]c2ccccc12	10.2		32.6	
CC(C)(NC(=O)/C=C/c1ccc(O)cc1)C(=O)NCCc1c[nH]c2ccc(F)cc12	7		67.5	80
NC(=O)C1CCCc2c1[nH]c1ccc(Cl)cc21 (stereo unspecified)	98.9		89.4	
O=C(/C=C/c1ccc(OCc2ccccc2)cc1)NC1(C(=O)NCCc2c[nH]c3ccccc23)CCNCC1	97	52	79.1	63
CC(C)(NC(=O)/C=C/c1ccc(O)cc1)C(=O)NCCc1c[nH]c2ccccc12	6.6		83.3	50
COc1ccc(/C=C/C(=O)NC(C)(C)C(=O)NCCc2c[nH]c3ccccc23)cc1	10.3		55.4	99
